Several values for one entry are separate records, joined by “and”; a condition that tells them apart may be missing. Equal entries are not always repeated. Inconclusive results and toxic doses are left out.
Test system: BDF1 mice, P388/VCR leukemia ip, median survival T/C
Test: NCI In Vivo Anticancer Drug Screen. Data for tumor model P388 Leukemia resistant to Vincristine; NSC 67574 (intraperitoneal) in B6D2F1 (BDF1) mice
Settings: endpoint: median survival time, higher = longer survival
Description: The antitumor activity of compounds was measured in mice bearing transplantable tumors. Survival or tumor size were measured and the results are expressed as the measurement made in the treated group (T) divided by the measurement made in the vehicle treated control group (C). The tumor model used in this assay is P388 Leukemia resistant to Vincristine; NSC 67574 (intraperitoneal) in B6D2F1 (BDF1) mice

[1] = dose: 125.0 mg/kg/injection, schedule: Q01DX010 (ip), vehicle: saline

Nc1nc2n[nH]nc2c(=O)[nH]1
T/C (dose: 25.0 mg/kg/injection, schedule: Q01DX010 (ip), vehicle: alkali diluted with saline): 155 % of control and 170 % of control | T/C (dose: 50.0 mg/kg/injection, schedule: Q01DX010 (ip), vehicle: alkali diluted with saline): 162 % of control and 191 % of control | T/C (dose: 100.0 mg/kg/injection, schedule: Q01DX010 (ip), vehicle: alkali diluted with saline): 170 % of control and 204 % of control | T/C (dose: 200.0 mg/kg/injection, schedule: Q01DX010 (ip), vehicle: alkali diluted with saline): 177 % of control and 204 % of control

COc1cc([C@@H]2c3cc4c(cc3[C@@H](OC3OC5COC(C)OC5C(O)C3O)[C@H]3COC(=O)[C@H]23)OCO4)cc(OC)c1O (stereo partly specified)
T/C (dose: 7.48 mg/kg/injection, schedule: Q04DX003 (ip), vehicle: other): 274 % of control | T/C (dose: 12.5 mg/kg/injection, schedule: Q04DX003 (ip), vehicle: other): 250 % of control | T/C (dose: 20.8 mg/kg/injection, schedule: Q04DX003 (ip), vehicle: other): 307 % of control | T/C (dose: 34.6 mg/kg/injection, schedule: Q04DX003 (ip), vehicle: other): 340 % of control

O=C1CCC(N2C(=O)c3ccccc3C2=O)C(=O)N1 (stereo unspecified)
T/C (dose: 62.5 mg/kg/injection, schedule: Q01DX010 (ip), vehicle: saline): 95 % of control | T/C [1]: 91 % of control

Nc1cc(C(=O)Nc2ccc(C3=NCCN3)cc2)cc(C(=O)Nc2ccc(C3=NCCN3)cc2)c1
T/C (dose: 32.0 mg/kg/injection, schedule: Q01DX010 (ip), vehicle: saline): 156 % of control | T/C (dose: 64.0 mg/kg/injection, schedule: Q01DX010 (ip), vehicle: saline): 165 % of control

O=CCC(O)C(O)C(O)CO (stereo unspecified)
T/C [1]: 88 % of control | T/C (dose: 250.0 mg/kg/injection, schedule: Q01DX010 (ip), vehicle: saline): 88 % of control and 92 % of control | T/C (dose: 500.0 mg/kg/injection, schedule: Q01DX010 (ip), vehicle: saline): 92 % of control and 100 % of control

O=C(Nc1ccc(NC(=O)Nc2cccc(C3=NCCN3)c2)cc1)Nc1cccc(C2=NCCN2)c1
T/C (dose: 120.0 mg/kg/injection, schedule: Q01DX010 (ip), vehicle: saline): 162 % of control and 183 % of control | T/C (dose: 480.0 mg/kg/injection, schedule: Q01DX010 (ip), vehicle: saline): 100 % of control

CN(C)c1nc(N(C)C)nc(N(C)C)n1
T/C (dose: 18.8 mg/kg/injection, schedule: Q01DX010 (ip), vehicle: saline): 100 % of control | T/C (dose: 37.5 mg/kg/injection, schedule: Q01DX010 (ip), vehicle: saline): 100 % of control | T/C (dose: 75.0 mg/kg/injection, schedule: Q01DX010 (ip), vehicle: saline): 100 % of control | T/C (dose: 150.0 mg/kg/injection, schedule: Q01DX010 (ip), vehicle: saline): 104 % of control

CCC1(O)CC2CN(CCc3c([nH]c4ccccc34)C(C(=O)OC)(c3cc4c(cc3OC)N(C)C3C(O)(C(N)=O)C(O)C5(CC)C=CCN6CCC43C65)C2)C1 (stereo unspecified) (tested in a mixture with another compound)
T/C (dose: 500.0 micrograms/kg/injection, schedule: Q04DX003 (ip), vehicle: saline): 107 % of control | T/C (dose: 648.0 micrograms/kg/injection, schedule: Q04DX003 (ip), vehicle: saline): 106 % of control | T/C (dose: 1000.0 micrograms/kg/injection, schedule: Q04DX003 (ip), vehicle: saline): 118 % of control | T/C (dose: 1080.0 micrograms/kg/injection, schedule: Q04DX003 (ip), vehicle: saline): 100 % of control | T/C (dose: 1800.0 micrograms/kg/injection, schedule: Q04DX003 (ip), vehicle: saline): 98 % of control | T/C (dose: 4000.0 micrograms/kg/injection, schedule: Q04DX003 (ip), vehicle: saline): 110 % of control

CN(Cc1cnc2nc(N)nc(N)c2n1)c1ccc(C(=O)N[C@@H](CCC(=O)O)C(=O)O)cc1
T/C (dose: 8.64 mg/kg/injection, schedule: Q04DX003 (ip), vehicle: sodium bicarbonate): 167 % of control | T/C (dose: 14.4 mg/kg/injection, schedule: Q04DX003 (ip), vehicle: sodium bicarbonate): 188 % of control | T/C (dose: 24.0 mg/kg/injection, schedule: Q04DX003 (ip), vehicle: sodium bicarbonate): 214 % of control

Nc1nncs1
T/C (dose: 64.8 mg/kg/injection, schedule: Q04DX003 (ip), vehicle: saline): 101 % of control | T/C (dose: 180.0 mg/kg/injection, schedule: Q04DX003 (ip), vehicle: saline): 151 % of control

CC/C(=C(/CC)c1ccc(O)cc1)c1ccc(O)cc1
T/C (dose: 12.5 mg/kg/injection, schedule: Q01DX010 (sc), vehicle: steriod suspending solution): 88 % of control and 111 % of control | T/C (dose: 25.0 mg/kg/injection, schedule: Q01DX010 (sc), vehicle: steriod suspending solution): 103 % of control | T/C (dose: 50.0 mg/kg/injection, schedule: Q01DX010 (sc), vehicle: steriod suspending solution): 100 % of control | T/C (dose: 100.0 mg/kg/injection, schedule: Q01DX010 (sc), vehicle: steriod suspending solution): 103 % of control

From PubChem BioAssay AID336 (DTP/NCI, 2004)
